Here are results for 28 compounds from US6777422B2, “Substituted tetrahydroisoquinolines as C5a receptor modulators” (Neurogen Corp., priority 2002, dated 2004).

The target of the first test is T1, human C5a receptor (Homo sapiens, UniProt P21730).
T1 construct: endogenous in cells; host or cells: U937 cells differentiated with 1 mM dibutyryl cAMP
T1 sequence (P21730 1-350): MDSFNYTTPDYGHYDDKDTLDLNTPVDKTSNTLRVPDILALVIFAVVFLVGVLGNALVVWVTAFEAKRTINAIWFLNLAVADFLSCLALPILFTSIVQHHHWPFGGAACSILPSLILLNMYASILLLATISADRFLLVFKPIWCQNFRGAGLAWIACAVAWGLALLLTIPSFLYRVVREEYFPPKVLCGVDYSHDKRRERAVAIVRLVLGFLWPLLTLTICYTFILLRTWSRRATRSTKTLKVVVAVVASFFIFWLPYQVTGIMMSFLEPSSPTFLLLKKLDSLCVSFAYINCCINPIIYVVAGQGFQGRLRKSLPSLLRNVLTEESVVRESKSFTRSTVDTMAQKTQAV
Put plainly: C5a receptor mediated calcium mobilization assay (Example 20). The settings on record: differentiated U937 cells, read-out: Ca2+ (Ki in the standard assay of C5a receptor mediated calcium mobilization). Format: cell-based. The essentials:
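Differentiated U937 cells (dibutyryl cAMP, 48 h) loaded with Fluo-3 were pre-incubated 1 h with compound at 1 μM, then challenged with 0.3 nM (final) human recombinant C5a. Calcium response monitored by FLIPR fluorescence (Ex 480/Em 530 nm); antagonism defined as ≥2-fold decrease versus C5a alone.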
A general note: Calcium flux is commonly read through the fluorescence of an indicator in the cells.
On to `Cc1ccccc1[C@@H]1c2ccccc2[C@@H](C)CN1CC(=O)N(Cc1ccccc1F)C1Cc2ccccc2C1` (stereo in doubt) [Compound 46, N-(indan-2-yl)-N-(2-fluorobenzyl)-2-[(1R,4R)-4-methyl-1-(2-methylphenyl)-3,4-dihydroisoquinolin-2(1H)-yl]acetamide], for which the Ki is below 1 µM.

Regarding `Cc1ccc(C2c3ccccc3CCN2CC(=O)N(Cc2ccccc2F)C2Cc3ccccc3C2)cc1C` (stereo not shown) [Compound 35, N-(indan-2-yl)-2-[1-(3,4-dimethylphenyl)-3,4-dihydroisoquinolin-2(1H)-yl]-N-(2-fluorobenzyl)acetamide], the Ki was below 1 µM.

For `C[C@@H](C(=O)N(CCc1c[nH]c2ccccc12)Cc1ccccc1F)N1CCc2ccccc2[C@@H]1c1cccc2ccccc12` [Compound 119, (2S)-N-(2-fluorobenzyl)-N-[2-(1H-indol-3-yl)ethyl]-2-[(1R)-1-(1-naphthyl)-3,4-dihydroisoquinolin-2(1H)-yl]propanamide], the Ki was below 1 µM.

On to `C[C@@H](C(=O)N(Cc1cccc(O)c1F)C1Cc2ccccc2C1)N1CCc2ccccc2[C@@H]1c1ccccc1Cl` [Compound 115, (2S)-2-[(1R)-1-(2-chlorophenyl)-3,4-dihydroisoquinolin-2(1H)-yl]-N-(indan-2-yl)-N-(2-fluoro-3-hydroxybenzyl)propanamide], for which the Ki is below 1 µM.

For the compound `CCC1(c2ccccc2C)c2ccccc2CCN1CC(=O)N(Cc1ccccc1F)C1Cc2ccccc2C1` (stereo not shown) [Compound 16, N-(indan-2-yl)-2-[1-ethyl-1-(2-methylphenyl)-3,4-dihydroisoquinolin-2(1H)-yl]-N-(2-fluorobenzyl)acetamide], the Ki is below 1 µM.

As for `C[C@@H](C(=O)N(Cc1ccccc1F)C1Cc2ccccc2C1)N1CCc2ccccc2[C@@H]1c1ccccc1Br` [Compound 70, (2S)-2-[(1R)-1-(2-bromophenyl)-3,4-dihydroisoquinolin-2(1H)-yl]-N-(indan-2-yl)-N-(2-fluorobenzyl)propanamide], the Ki is below 1 µM.

In the case of `C[C@@H](C(=O)N(Cc1cccc([N+](=O)[O-])c1)C1Cc2ccccc2C1)N1CCc2ccccc2[C@@H]1c1ccccc1Cl` [Compound 112, (2S)-2-[(1R)-1-(2-chlorophenyl)-3,4-dihydroisoquinolin-2(1H)-yl]-N-(indan-2-yl)-N-(3-nitrobenzyl)propanamide], the Ki is below 1 µM.

For `C[C@@H](C(=O)N(CCc1ccc(O)cc1)Cc1ccccc1F)N1CCc2ccccc2[C@@H]1c1cccc2ccccc12` [Compound 118, (2S)-N-(2-fluorobenzyl)-N-[2-(4-hydroxyphenyl)ethyl]-2-[(1R)-1-(1-naphthyl)-3,4-dihydroisoquinolin-2(1H)-yl]propanamide], the Ki is below 1 µM.

On to `O=C(CN1CCc2ccccc2C12CCc1ccccc12)N(Cc1ccccc1F)C1Cc2ccccc2C1` (stereo not shown) [Compound 45], for which the Ki was below 1 µM.

As to `Cc1ccc(Cl)cc1[C@@H]1c2ccccc2CCN1CC(=O)N(Cc1ccccc1F)C1Cc2ccccc2C1` (stereo in doubt) [Compound 51, 2-[1-(5-chloro-2-methylphenyl)-3,4-dihydroisoquinolin-2(1H)-yl]-N-(indan-2-yl)-N-(2-fluorobenzyl)acetamide], the Ki was below 1 µM.

As to `C[C@@H](C(=O)N(Cc1ccccc1F)C1Cc2ccccc2C1)N1CCc2ccccc2[C@@H]1c1ccccc1F` [Compound 60, (2S)-N-(indan-2-yl)-N-(2-fluorobenzyl)-2-[(1R)-1-(2-fluorophenyl)-3,4-dihydroisoquinolin-2(1H)-yl]propanamide], the Ki was below 1 µM.

Consider `Cc1ccccc1[C@H]1c2ccccc2CCN1[C@@H](C)C(=O)N(Cc1ccccc1F)C1Cc2ccccc2C1` (stereo in doubt) [Compound 39, (2S)-N-(indan-2-yl)-N-(2-fluorobenzyl)-2-[(1S)-1-(2-methylphenyl)-3,4-dihydroisoquinolin-2(1H)-yl]propanamide], for which the Ki was below 1 µM.

Regarding `O=C(CN1CCc2ccccc2[C@H]1c1ccccc1C(F)(F)F)N(Cc1ccccc1F)C1Cc2ccccc2C1` [Compound 41, N-(indan-2-yl)-N-(2-fluorobenzyl)-2-[(1S)-1-[2-(trifluoromethyl)phenyl]-3,4-dihydroisoquinolin-2(1H)-yl]acetamide], the Ki is below 1 µM.

For the compound `C[C@@H](C(=O)N(Cc1ccccc1F)C1Cc2ccccc2C1)N1CCc2ccccc2[C@@H]1c1cccc2c1OCC2` [Compound 75, (2S)-2-[(1R)-1-(2,3-dihydro-1-benzofuran-7-yl)-3,4-dihydroisoquinolin-2(1H)-yl]-N-(indan-2-yl)-N-(2-fluorobenzyl)propanamide], the Ki was below 1 µM.

`C[C@@H](C(=O)N(Cc1cccc(C(=O)N(C)C)c1)C1Cc2ccccc2C1)N1CCc2ccccc2[C@@H]1c1ccccc1Cl` [Compound 105, 3-{[{(2S)-2-[(1R)-1-(2-chlorophenyl)-3,4-dihydroisoquinolin-2(1H)-yl]propanoyl}(indan-2-yl)amino]methyl}-N,N-dimethylbenzamide]: the Ki was below 1 µM.

As for `O=C(CN1CCc2ccccc2C1c1cc(F)ccc1C(F)(F)F)N(Cc1ccccc1F)C1Cc2ccccc2C1` (stereo not shown) [Compound 38, N-(indan-2-yl)-N-(2-fluorobenzyl)-2-[1-[5-fluoro-2-(trifluoromethyl)phenyl]-3,4-dihydroisoquinolin-2(1H)-yl]acetamide], the Ki was below 1 µM.

`COc1ccccc1C1c2ccccc2CCN1CC(=O)N(Cc1ccccc1F)C1Cc2ccccc2C1` (stereo not shown) [Compound 24, N-(indan-2-yl)-N-(2-fluorobenzyl)-2-[1-(2-methoxyphenyl)-3,4-dihydroisoquinolin-2(1H)-yl]acetamide]: the Ki was below 1 µM.

With `O=C(CN1CCc2ccccc2C1c1ccc(F)cc1C(F)(F)F)N(Cc1ccccc1F)C1Cc2ccccc2C1` (stereo not shown) [Compound 37, N-(indan-2-yl)-N-(2-fluorobenzyl)-2-[1-[4-fluoro-2-(trifluoromethyl)phenyl]-3,4-dihydroisoquinolin-2(1H)-yl]acetamide], the Ki was below 1 µM.

For `COc1ccc2c(c1)CC(N(Cc1ccccc1F)C(=O)CN1CCc3ccccc3C1c1ccccc1Cl)C2` (stereo not shown) [Compound 93, 2-[1-(2-chlorophenyl)-3,4-dihydroisoquinolin-2(1H)-yl]-N-(2-fluorobenzyl)-N-(5-methoxy-indan-2-yl)acetamide], the Ki is below 1 µM.

Turning to `Cc1cc(CN(C(=O)[C@H](C)N2CCc3ccccc3[C@@H]2c2ccccc2Cl)C2Cc3ccccc3C2)cc(C)c1O` [Compound 106, (2S)-2-[(1R)-1-(2-chlorophenyl)-3,4-dihydroisoquinolin-2(1H)-yl]-N-(indan-2-yl)-N-(4-hydroxy-3,5-dimethylbenzyl)propanamide], the Ki is below 1 µM.

Take `Cc1ccccc1[C@@H]1c2c(C)cccc2CCN1CC(=O)N(Cc1ccccc1F)C1Cc2ccccc2C1` (stereo in doubt) [Compound 78, N-(indan-2-yl)-N-(2-fluorobenzyl)-2-[8-methyl-1-(2-methylphenyl)-3,4-dihydroisoquinolin-2(1H)-yl]acetamide]: the Ki was below 1 µM.

`C[C@H]1CN(CC(=O)N(Cc2ccccc2F)C2Cc3ccccc3C2)[C@@H](c2ccccc2F)c2ccccc21` [Compound 54, N(indan-2-yl)-N-(2-fluorobenzyl)-2-[(1R,4R)-1-(2-fluorophenyl)-4-methyl-3,4-dihydroisoquinolin-2(1H)-yl]acetamide]: the Ki was below 1 µM.

As to `C[C@@H](C(=O)N(Cc1cccc(C(=O)O)c1)C1Cc2ccccc2C1)N1CCc2ccccc2[C@@H]1c1ccccc1Cl` [Compound 98, 3{[{(2S)-2-[(1R)-1-(2-chlorophenyl)-3,4-dihydroisoquinolin-2(1H)-yl]propanoyl}(indan-2-yl)amino]methyl}benzoic acid], the Ki is below 1 µM.

As to `Cc1ccccc1[C@@H]1c2ccccc2CCN1CC(=O)N(Cc1ccccc1F)C1Cc2ccccc2C1` [Compound 26, N-(indan-2-yl)-N-(2-fluorobenzyl)-2-[(1R)-1-(2-methylphenyl)-3,4-dihydroisoquinolin-2(1H)-yl]acetamide], the Ki is below 1 µM.

In the case of `C[C@@H](C(=O)N(Cc1cccc(OC(F)F)c1F)C1Cc2ccccc2C1)N1CCc2ccccc2[C@@H]1c1ccccc1Cl` [Compound 120, (2S)-2-[(1R)-1-(2-chlorophenyl)-3,4-dihydroisoquinolin-2(1H)-yl]-N-[3-(difluoromethoxy)-2-fluorobenzyl]-N-(indan-2-yl)propanamide], the Ki was below 1 µM.

In the case of `O=C(CN1CCc2cccc(Cl)c2C1c1c(F)cccc1Cl)N(Cc1ccccc1F)C1Cc2ccccc2C1` (stereo not shown) [Compound 117, 2-[8-chloro-1-(2-chloro-6-fluorophenyl)-3,4-dihydroisoquinolin-2(1H)-yl]-N-(indan-2-yl)-N-(2-fluorobenzyl)acetamide], the Ki is below 1 µM.

`O=C(CN1CCc2ccccc2C1c1cccc2c1OCC2)N(Cc1ccccc1F)C1Cc2ccccc2C1` (stereo not shown) [Compound 53, 2-[1-(2,3-dihydro-1-benzofuran-7-yl)-3,4-dihydroisoquinolin-2(1H)-yl]-N-(indan-2-yl)-N-(2-fluorobenzyl)acetamide]: the Ki was below 1 µM.

The same test, now with this note: differentiated U937 cells, unit inferred, read-out: Ca2+ (numeric value, C5a receptor mediated calcium mobilization).
In the case of `Cc1ccccc1[C@@H]1C2=C(CCCC2)CCN1CC(=O)N(Cc1ccccc1F)C1Cc2ccccc2C1` (stereo in doubt) [Compound 131, N-(2-Fluoro-benzyl)-N-indan-2-yl-2-(1-o-tolyl-3,4,5,6,7,8-hexahydro-1H-isoquinolin-2-yl)-acetamide], the Ki amounted to 0.0131 µM.
